Experimental data reported in publication PMC6611794, “Development of a high-throughput strategy for discovery of potent analogues of antibiotic lysocin E” (Nature Communications, 2019).
Values joined by “and” are separate entries in the source; they are usually repeats but may differ in a detail not shown here. Identical values can stand only once. Like-named read-outs stand apart in the source and are kept apart here. Where a SMILES comes first, the peptide text is derived from it. Bridges are numbered along the chain shown (N, C = ends). [ ]: non-standard residue; d: D form. The star is where a group is joined. Hexanoyl(3R-OH,5-Me) = CC(C)C[C@@H](O)CC(=O)*; dNMeF = CN[C@H](Cc1ccccc1)C(=O)O

Experiments:
[1] = On-bead menaquinone complexation assay (fluorescence of 2H); type: binding; conditions: single library bead (hit beads >1000 a.u.); average of three readings; listed as KLVI
Procedure: Next, the feasibility of the on-bead complexation assay was assessed using bead-linked lysocin E 30 and MK-4 (2). Our initial assay based on the finding that 1 and 2 form a red precipitate upon complexation (Supplementary Fig. 2) was not robust, because the magnitude of the red color was not proportional to the amount of captured 2 (Fig. 2b, c). We therefore developed a fluorescence-based method for quantifying 2 by reducing its naphthoquinone moiety to fluorescent hydroquinone 2H. One bead of 30 was incubated with 2 in MeOH, washed by MeOH in a microplate well, and then the bead-bound 2 was eluted under more forcing hydrophobic conditions (n-BuOH at 50 °C). The eluate containing 2 was treated with NaBH4 in n-BuOH to produce 2H[46]. The fluorescence intensity of 2H was evaluated to determine the quantity of 2 bound to one bead of 30. The method was found with a small margin of error (1026 ± 64 a.u.), indicating its high accuracy (Fig. 2a and Supplementary Fig. 3). Importantly, the structure of 1 remained intact during the complexation assay as judged by UHPLC and mass analyses.
General procedures for menaquinone complexation assay. To the bead-linked lysocin E analogues in LibraTube was added a solution of menaquinone-4 (2) in MeOH (10 mM, 1.0 mL/1000 beads). The mixture was incubated at room temperature for 12 h. A suspension of the beads in MeOH (200 beads/200 µL) was transferred to a 2.0 mL microtube.
Each bead in the microtube was transferred to each well of a 96-well filtration plate (278011, Thermo Fisher Scientific, 1 bead/well) with the solution of 2 (20 µL/bead) using a micropipette. To each well was added MeOH (400 µL), and the beads was filtered by gravity flow (× 3). The beads in the plate were dried under vacuum for 0.5–1 h. The dried beads were transferred to a 96-well PCR plate (652270, Greiner bio-one, 1 bead/well) with MeOH (20 µL/well) using a micropipette. The solution was removed under a stream of Ar at 40 °C to give the 2-bound bead-linked peptides.
To the 2-bound bead-linked peptides in the plate was added n-BuOH (30 µL/well) at room temperature .
The suspension was incubated at 50 °C for 1 h. The resultant mixture in the plate was centrifuged at 3500 × g at room temperature for 10 sec . The supernatant in each well was transferred to the corresponding well of a black polystyrene flat -bottom 96-well plate (655086, Greiner bio-one). The solution was concentrated under a stream of Ar at 40 °C to give the eluted 2.
To the above eluted 2 in the plate was added n-BuOH (25 µL/well) at room temperature. The plate was vortexed at room temperature for 10 min. To the resultant solution was added a solution of NaBH4 in n-BuOH (1.0 mM, 25 µL/well). The plate was vortexed at room temperature for 10 min. The fluorescence of menahydroquinone (2H, Ex. 250 nm/Em. 430 nm) of each well was measured at room temperature every 3 min (0, 3, and 6 min) on Gemini EM microplate reader (Molecular Devices) . The three fluorescence intensities of each bead were averaged and plotted against the bead number.
Evaluation of menaquinone complexation activities of the selected bead-linked peptides. Bead-linked peptides 30, BLP1, and BLP2 were synthesized according to the above described procedures (loading rate:
0.222 mmol/g). The bead-linked peptides were subjected to the MK complexation assay described above.
The obtained fluorescent intensities of 2H (arbitrary unit) were 1026 ± 64 for 30, 396 ± 27 for BLP1, 72.9 ± 2.0 for BLP2, and 41.6 ± 0.1 for background adsorption (no bead), respectively (Supplementary Figure 3).

[2] = Liposomal membrane disruption assay (carboxyfluorescein LUVs); type: biochemical
Procedure: Preparation of LUVs consisting of PC/PG/MK-4 or PC/PG/UQ-10. To a solution of egg yolk phosphatidylcholine (9.48 mg, 12.4 µmol) and egg yolk phosphatidylglycerol (9.66 mg, 12.4 µmol) in CHCl3 (0.208 mL) was added a solution of MK-4 (2) or UQ-10 (3) (0.313 µmol) in CHCl3 (21.8 µL). The solution was concentrated, and dried under vacuum to for m a lipid thin film. The thin film was hydrated and suspended in carboxyfluorescein-containing buffer solution (0.500 mL, 5 mM HEPES, 20 mM carboxyfluorescein , pH 7.5) by vortexing and sonication. After five-times freeze-thaw cycles, the lipid suspension was extruded 19 times through a polycarbonate filter with 0.40 µm of pore siz e in the diameter.
The external carboxyfluorescein -containing buffer was replaced with a carboxyfluorescein -free buffer solution (20 mM HEPES, 1 mM EDTA, pH 7.5) through size exclusion chromatography using disposable PD -10 column. Concentration of egg yolk phosphatidylcholine was determined by using Phospholipid C -Test Wako.
The final concentration of egg yolk phosphatidylcholine was adjusted to 4.0 µM with the carboxyfluorescein -free buffer solution, and the solution was used for membrane disruption ass ay.
Membrane disruption assay. Peptides 1, A1–A22, B1–B5, and C1–C5 were diluted with MeOH/H2O (4/6) to various concentrations as 5-fold serial dilutions. The solution of peptides (2 µL/well) and the carboxyfluorescein-encapsulated LUV suspension (200 µL/well) were mixed in black polystyrene flat-bottom 96-well plates. The final concentration of peptides ranged from 2970 nM to 0.950 nM. The plates were vortexed at room temperature for 30 min, and then fluorescence of carboxyfluorescein (Ex. 490 nm/Em. 517 nm) of each well was measured at room temperature on Gemini EM microplate reader. Trion X-100/H2O (5/95, 2 µL), MeOH/H2O (4/6, 2 µL), and the LUV suspension were mixed in each plate to determine 100% lysis. MeOH/H2O (4/6, 2 µL) and the LUV suspension were mixed in each plate to determine 0% lysis.
The membrane disruption activities of tested peptides (I) were normalized against 100% lysis by Triton X -100 […]
(Imax) and 0% lysis by MeOH/H2O (4/6) (I0) as following, where Ix is the fluorescence intensity (Supplementary Equation 2).
I = 100 × (Ix – I0) / (Imax – I0) (2)
The membrane-disrupting activities were evaluated as half-maximal response (EC50, nM) values by means of three replicates. Sigmoidal curve fittings were performed on R2 with drc package (Supplementary Figs S7–S9).3 Two-parameter logistic model was applied for the fitting.

Which “fluorescence intensity of 2H” value [1] does the source give for `CC[C@H](C)[C@@H]1NC(=O)[C@@H](Cc2c[nH]c3ccccc23)NC(=O)[C@@H](C(C)C)NC(=O)[C@H](CCC(=O)O)NC(=O)[C@@H](CCCNC(=N)N)NC(=O)[C@H](CC(C)C)NC(=O)[C@@H](Cc2ccccc2)N(C)C(=O)CNC(=O)[C@H](CCCCN)NC(=O)[C@@H](CCCNC(=N)N)NC(=O)[C@@H](NC(=O)C[C@H](O)CC(C)C)[C@@H](C)OC(=O)[C@H]([C@@H](C)O)NC1=O` [Peptide A3] ({Hexanoyl(3R-OH,5-Me)}-T[dR]KG[dNMeF]L[dR]E[dV][dW]IT; ester 1-C) here?
The value was 1439.45 a.u. and 1379.53 a.u.

What about the EC50 ([2]; 30 min, room temperature, mean ± SD of three independent experiments, read-out: EC50 PC/PG/3) of the same molecule?
The EC50 was 0.103 ± 0.085 µM.

What about the EC50 ([2]; PC/PG/3 LUVs, 1st experiment, read-out: EC50 PC/PG/3 1st) of the same molecule?
The EC50 was 0.0474 µM.

What about the EC50 ([2]; PC/PG/3 LUVs, 2nd experiment, read-out: EC50 PC/PG/3 2nd) of the same molecule?
Its EC50 is 0.201 µM.

What about the EC50 ([2]; PC/PG/3 LUVs, 3rd experiment, read-out: EC50 PC/PG/3 3rd) of the same molecule?
Its EC50 is 0.0609 µM.
